Results reported in patent publication US10001469B2, “Use of GPR83 to identify pruritus-related substances” (University of Miyazaki, priority 2010, dated 2018).
“Also recorded” adds a separate entry of the source. No end group written: not given here.

Assays:
[1] = system: pain-related behavior; conditions: cited from earlier work; for suppression of pain-related behavior resulting from SP: Non-patent Documents 1, 2 and 3
[2] = system: intrathecally catheterized rats; experiment: Scratching behavior after intrathecal administration of the peptide alone; type: in vivo, rat; conditions: 10^−3 M (10 nmol/10 μl) intrathecal
Description: 10^−3 M (10 nmol/10 μl) HK-1 and SP, the N-terminal regions (nHK-1 and nSP), and the C-terminal regions (cHK-1 and cSP) were administered to intrathecally catheterized rats via catheters. Ethological changes beginning immediately after administration were evaluated using the number of scratching events during a 5-minute period after each peptide administration as an indicator. Here, the expression “10^−3 M (10 nmol/10 μl) . . . administered” refers to administration of 10 μl (full dose) of a solution containing 10 nmol of a peptide (e.g., nHK-1) (that is, a 10^−3 M solution). The same applies to the following similar expressions. […] In these graphs, the number of scratching events induced by administration of 10^−3 M (10 nmol/10 μl) SP or HK-1 alone is designated as a control, and is specifically designated as 100%.

Substance | suppression of pain-related behavior resulting from SP [1] | scratching behavior on administration of the peptide alone (number of scratching events during a 5-minute period) [2] | other results
Arg-Pro-Lys-Pro-Gln-Gln-Phe-NH2 (RPKPQQF-NH2) [SP(1-7)] | can be suppressed; also recorded: suppress pain-related behavior resulting from SP | – | –
Arg-Pro-Lys-Pro-Gln-Gln-Phe-Phe-NH2 (RPKPQQFF-NH2) [SP(1-8)] | suppress pain-related behavior resulting from SP | – | –
Gln-Phe-Phe-Gly-Leu-Met-NH2 (QFFGLM-NH2) [cSP] | – | resulted in scratching behavior | –
Gln-Phe-Tyr-Gly-Leu-Met-NH2 (QFYGLM-NH2) [cHK-1] | – | resulted in scratching behavior | –
Phe-Phe-Gly-Leu-Met-NH2 (FFGLM-NH2) [SP(7-11)] | – | – | induction of pain-related behavior (e.g., scratching behavior) ([1]; administered to a rat or a mouse, Non-patent Document 1): pain-related behavior is induced
